Experimental data published in patent US20060030574A1, “Quinazoline derivatives useful for the treatment of peripheral arterial disease and as phosphodiesterase inhibitors” (Shire Holdings AG, priority 2004, published 2006).
Several values for one entry are separate records, joined by “and”; a condition that tells them apart may be missing. Identical values can stand only once. Like-named read-outs stand apart in the source and are kept apart here.

How the values were obtained:
[1] = target: Phosphodiesterase III (h) (Homo sapiens, UniProt Q14432); assay: Phosphodiesterase III (h) inhibition; format: biochemical
Chain of Phosphodiesterase III (h) (Q14432 whole entry): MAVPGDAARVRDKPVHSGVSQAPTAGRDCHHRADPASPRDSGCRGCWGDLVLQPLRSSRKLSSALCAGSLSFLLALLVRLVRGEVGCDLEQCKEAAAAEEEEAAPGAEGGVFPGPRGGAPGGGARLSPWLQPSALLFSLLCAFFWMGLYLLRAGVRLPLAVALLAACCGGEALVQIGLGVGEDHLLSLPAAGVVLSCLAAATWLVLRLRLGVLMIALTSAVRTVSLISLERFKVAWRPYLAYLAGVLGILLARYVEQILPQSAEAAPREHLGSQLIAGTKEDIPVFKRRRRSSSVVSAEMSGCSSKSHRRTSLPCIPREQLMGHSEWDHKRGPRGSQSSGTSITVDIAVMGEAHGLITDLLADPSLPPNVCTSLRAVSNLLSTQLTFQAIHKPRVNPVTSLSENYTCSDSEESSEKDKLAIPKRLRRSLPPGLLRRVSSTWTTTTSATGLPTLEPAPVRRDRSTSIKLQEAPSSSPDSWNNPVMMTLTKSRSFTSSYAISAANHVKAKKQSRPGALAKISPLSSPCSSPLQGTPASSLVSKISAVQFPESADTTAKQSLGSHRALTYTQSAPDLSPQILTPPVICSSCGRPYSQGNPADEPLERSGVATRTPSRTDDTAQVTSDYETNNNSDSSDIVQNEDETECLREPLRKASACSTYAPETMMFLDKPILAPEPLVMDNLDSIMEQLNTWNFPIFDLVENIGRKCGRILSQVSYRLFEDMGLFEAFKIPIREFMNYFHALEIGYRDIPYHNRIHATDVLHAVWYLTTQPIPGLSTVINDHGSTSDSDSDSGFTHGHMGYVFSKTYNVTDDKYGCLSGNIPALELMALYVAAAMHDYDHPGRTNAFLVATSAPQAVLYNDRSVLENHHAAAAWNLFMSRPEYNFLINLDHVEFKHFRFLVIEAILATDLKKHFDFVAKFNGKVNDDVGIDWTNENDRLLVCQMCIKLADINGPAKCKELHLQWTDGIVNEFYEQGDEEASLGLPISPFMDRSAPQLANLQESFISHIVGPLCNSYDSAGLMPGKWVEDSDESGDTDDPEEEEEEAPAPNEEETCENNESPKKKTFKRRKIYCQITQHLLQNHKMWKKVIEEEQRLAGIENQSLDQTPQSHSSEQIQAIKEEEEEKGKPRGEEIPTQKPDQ

Phosphodiesterase II (h) = Phosphodiesterase II (h) (Homo sapiens, UniProt O00408); assay: Phosphodiesterase II (h) inhibition; format: biochemical
Chain of Phosphodiesterase II (h) (O00408 whole entry): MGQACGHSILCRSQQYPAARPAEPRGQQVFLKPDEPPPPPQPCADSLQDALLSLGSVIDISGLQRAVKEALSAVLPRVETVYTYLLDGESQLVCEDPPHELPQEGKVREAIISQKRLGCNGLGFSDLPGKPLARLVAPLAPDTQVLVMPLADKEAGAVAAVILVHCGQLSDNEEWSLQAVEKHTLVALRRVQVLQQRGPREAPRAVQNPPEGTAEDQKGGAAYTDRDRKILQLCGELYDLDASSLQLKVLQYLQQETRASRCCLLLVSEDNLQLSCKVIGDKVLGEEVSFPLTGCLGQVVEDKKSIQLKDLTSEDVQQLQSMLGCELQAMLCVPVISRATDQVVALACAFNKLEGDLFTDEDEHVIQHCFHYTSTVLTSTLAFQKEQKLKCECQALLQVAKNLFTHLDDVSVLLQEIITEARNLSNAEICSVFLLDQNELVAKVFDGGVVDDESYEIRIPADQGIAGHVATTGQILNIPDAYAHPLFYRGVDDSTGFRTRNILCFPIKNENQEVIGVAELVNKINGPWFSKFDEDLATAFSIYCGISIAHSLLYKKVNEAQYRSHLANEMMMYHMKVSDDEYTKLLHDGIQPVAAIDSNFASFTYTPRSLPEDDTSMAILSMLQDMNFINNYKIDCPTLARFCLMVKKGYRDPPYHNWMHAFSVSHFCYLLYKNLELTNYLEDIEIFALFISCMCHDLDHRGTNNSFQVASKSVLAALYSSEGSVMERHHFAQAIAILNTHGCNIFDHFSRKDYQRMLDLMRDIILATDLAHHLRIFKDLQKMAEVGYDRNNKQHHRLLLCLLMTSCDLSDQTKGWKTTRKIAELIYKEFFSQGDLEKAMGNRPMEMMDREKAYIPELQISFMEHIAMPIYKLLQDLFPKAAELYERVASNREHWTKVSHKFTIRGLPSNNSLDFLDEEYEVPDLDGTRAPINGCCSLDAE

Phosphodiesterase V (h) = Phosphodiesterase V (h) (Homo sapiens, UniProt O76074); assay: Phosphodiesterase V (h) inhibition; format: biochemical
Description: (§1) The profile of activity against a selection of phosphodiesterases (I-VI) was investigated. The methods used for the evaluation of the biological activity are all well known in the art. See for example, Weishaar et al; Biochem. Pharmacol., 35:787-800.

Phosphodiesterase I = target: Phosphodiesterase I
Description: as §1

Phosphodiesterase IV (h) = Phosphodiesterase IV (h) inhibition; format: biochemical, human; settings: 10 μM; percent inhibition of control activity, mean values, n = 2
Phosphodiesterase VI = target: T1, Phosphodiesterase VI (Bos taurus, UniProt P11541+P23439); assay: Phosphodiesterase VI inhibition; format: biochemical
T1 sequence (P11541 2-856): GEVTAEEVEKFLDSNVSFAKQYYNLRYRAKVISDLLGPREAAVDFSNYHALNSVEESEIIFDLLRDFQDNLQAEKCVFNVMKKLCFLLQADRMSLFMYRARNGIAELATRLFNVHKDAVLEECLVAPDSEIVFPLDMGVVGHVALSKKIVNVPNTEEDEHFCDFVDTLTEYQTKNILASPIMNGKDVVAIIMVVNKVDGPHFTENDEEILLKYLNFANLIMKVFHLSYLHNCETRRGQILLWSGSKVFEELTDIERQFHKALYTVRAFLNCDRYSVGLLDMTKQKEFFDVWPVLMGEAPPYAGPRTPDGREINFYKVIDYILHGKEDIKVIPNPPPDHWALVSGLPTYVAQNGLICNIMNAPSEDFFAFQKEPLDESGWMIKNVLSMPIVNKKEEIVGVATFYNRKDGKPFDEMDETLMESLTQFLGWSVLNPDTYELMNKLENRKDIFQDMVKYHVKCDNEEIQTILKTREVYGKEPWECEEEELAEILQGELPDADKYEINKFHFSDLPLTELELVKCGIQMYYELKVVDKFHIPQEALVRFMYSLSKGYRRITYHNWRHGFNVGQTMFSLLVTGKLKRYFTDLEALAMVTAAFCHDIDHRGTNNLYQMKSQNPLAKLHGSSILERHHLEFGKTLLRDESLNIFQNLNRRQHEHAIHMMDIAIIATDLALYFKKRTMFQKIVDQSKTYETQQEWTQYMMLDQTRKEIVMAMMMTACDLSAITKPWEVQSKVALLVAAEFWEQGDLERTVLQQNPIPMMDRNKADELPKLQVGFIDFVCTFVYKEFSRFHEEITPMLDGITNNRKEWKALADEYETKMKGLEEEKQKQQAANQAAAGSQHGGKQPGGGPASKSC
T1 sequence (P23439 2-850): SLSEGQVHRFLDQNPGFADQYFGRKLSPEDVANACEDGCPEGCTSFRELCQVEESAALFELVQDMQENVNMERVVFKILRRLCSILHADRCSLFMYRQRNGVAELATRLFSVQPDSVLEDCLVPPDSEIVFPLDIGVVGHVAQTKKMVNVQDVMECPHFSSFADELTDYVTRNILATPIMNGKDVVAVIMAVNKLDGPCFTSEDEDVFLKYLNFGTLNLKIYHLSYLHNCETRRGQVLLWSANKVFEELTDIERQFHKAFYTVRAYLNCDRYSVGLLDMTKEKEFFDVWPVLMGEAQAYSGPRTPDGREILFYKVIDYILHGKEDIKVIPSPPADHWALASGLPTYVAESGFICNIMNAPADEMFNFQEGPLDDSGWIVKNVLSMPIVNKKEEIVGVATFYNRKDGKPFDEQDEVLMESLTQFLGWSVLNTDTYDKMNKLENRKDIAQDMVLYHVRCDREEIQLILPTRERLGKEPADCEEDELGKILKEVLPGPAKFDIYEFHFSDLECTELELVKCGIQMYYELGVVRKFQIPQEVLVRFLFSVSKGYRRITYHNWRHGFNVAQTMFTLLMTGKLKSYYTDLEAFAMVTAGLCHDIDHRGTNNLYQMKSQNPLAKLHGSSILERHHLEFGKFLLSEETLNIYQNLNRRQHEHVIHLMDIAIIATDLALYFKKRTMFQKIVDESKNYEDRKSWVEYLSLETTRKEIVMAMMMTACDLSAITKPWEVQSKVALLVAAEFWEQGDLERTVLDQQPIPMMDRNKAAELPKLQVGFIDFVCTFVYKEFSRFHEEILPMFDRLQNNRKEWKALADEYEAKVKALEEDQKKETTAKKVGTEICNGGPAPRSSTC
T1 sequence (P04972 1-87 partner): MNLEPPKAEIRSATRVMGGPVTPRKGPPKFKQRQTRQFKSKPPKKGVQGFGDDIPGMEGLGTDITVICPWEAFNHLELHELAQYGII
Description: The IC50 value against PDEVI was determined.

[2] = Hill coefficient of the test compound
[3] = Hill coefficient of the reference compound

## O=C1NC2=NCc3c(ccc(Cl)c3Cl)N2C1O (stereo not shown) [Compound#5, (6,7-Dichloro-1-hydroxy-3,5-dihydro-imidazo[1,2-a]quinazolin-2-one)]
[1]; [2]
  (nH): 0.4

## CCCCCC[C@@H]([C@@H](C)O)n1cnc2c(N)ncnc21 (racemic) [EHNA]
Phosphodiesterase II (h); [3]
  Reference compounds (nH): (0.7)
Phosphodiesterase II (h); control value for the reference compound, read-out: Reference compounds IC50
  IC50: 2600 nM

## OCCN(CCO)c1nc(N2CCCCC2)c2nc(N(CCO)CCO)nc(N3CCCCC3)c2n1 [dipyridamole, reference compound]
Phosphodiesterase V (h); [3]
  Reference compounds (nH): (1.3)

## Cc1[nH]c(=O)c(C#N)cc1-c1ccncc1 [milrinone, reference compound]
[1]; [3]
  Reference compounds (nH): 0.6

## COCc1nc2c([nH]1)c(=O)n(C)c(=O)n2CC(C)C [8-methoxy-IBMX, reference compound]
Phosphodiesterase I; read-out: Reference compounds IC50, control value for the reference compound
  IC50: 2410 nM

## O=C1NC2=Nc3ccc(Cl)c(Cl)c3CN2C1O (stereo not shown) [Compound #3, 6,7-dichloro-3-hydroxy-1,5-dihydro-imidazo[2,1-b]quinazolin-2-one]
other
  melting point: 170 °C (dec.)

## O=CC(=O)NC1=Nc2ccc(Cl)c(Cl)c2CN1 [Compound#1, N-(5,6-dichloro-3,4-dihydroquinazolin-2-yl)-2-oxoacetamide]
Phosphodiesterase II (h)
  inhibition at 10 µM: < 10%
Phosphodiesterase IV (h)
  % inhibition: — (The symbol - indicates an inhibition of less than 10%.)
Phosphodiesterase V (h)
  inhibition at 10 µM: 64%
Phosphodiesterase I; 10 μM, percent inhibition of control activity, mean values, n = 2
  % inhibition: 26%
[1]
  inhibition at 10 µM: 97%
[1]; average of two separate occasions, read-out: IC50 (average)
  IC50: 0.9 nM
[1]; test compound, assay 1 and assay 2 (two separate occasions), read-out: IC50
  IC50: 0.69 nM and 1.1 nM
Phosphodiesterase VI
  inhibition at 10 µM: 89%
Phosphodiesterase VI; [2]
  (nH): (1.0)
